Test results published in patent publication US20200281928A1, “VITAMIN B1 IN HIGH DOSES FOR USE IN THE MEDICAL TREATMENT OF MOTOR SYMPTOMS OF SOME SPORADIC NEURODEGENERATIVE DISEASES, OF GENETIC ORIGIN, AND OF CLUSTER HEADACHE AND OF MIGRAINE HEADACHE” (priority 2017, published 2020).
Like-named read-outs stand apart in the source and are kept apart here.

Columns and labels:
[1] = system: Multisystemic Atrophy (MSA) of Cerebellar Type (Type C); settings: for Improvement of motor symptoms: SARA, two months of therapy; for SARA scale after therapy: five 100 mg/ml vials intramuscularly per week plus low doses of other group b vitamins and magnesium, two months, scale 0-40
Protocol: We treated three patients affected by such pathology with five vials intramuscularly per week of vitamin B1. A vial included 100 mg/ml of thiamine. The injection was performed every morning for the first five days of the week. The dose was determined empirically based upon the disease progression rapidity.
Moreover, low doses of all other vitamins of group b, including folic acid, 150 mg of magnesium citrate and 150 mg of magnesium malate, were associated to the treatment.
The patients were evaluated with SARA (Scale for Assessment and Rating of Ataxia), scale validated for all disorders of cerebellar type. The score of this scale ranges 0 (absence of symptoms) to 40 (maximum deficit).
(§1) The diagnoses were made by Italian primary neurological centres based upon anamnestic, clinical, evolutionary, neuroradiological and neurophysiological data.

[2] = system: Cortico-Basal Degeneration; settings: for Improvement of motor symptoms: UPDRS portion III, two months of therapy; for UPDRS portion III after therapy: three 100 mg/ml vials intramuscularly per week plus low doses of other group b vitamins and magnesium, two months, scale 0-56
Protocol: We treated two patients affected by such pathology, two men with three vials intramuscularly per week of vitamin B1. One vial included 100 mg/ml of thiamine. The injection was performed in the three odd or even midweek days. The dose was determined empirically based upon the disease progression rapidity.
Furthermore low doses of all other vitamins of the group b, including folic acid, 150 mg of magnesium citrate and 150 mg of magnesium malate, were associated to the treatment.
The patients were evaluated with UPDRS (Unified Parkinson's Disease Rating Scale), scale validated for all Parkinson forms. Herein the scores of third portion (portion III) of this scale will be shown, illustrating the motor problems found by the examiner. […] Both of them were evaluated before starting the treatment and two months after the treatment beginning.
as §1

[3] = system: Sporadic spinocerebellar ataxia; settings: for Improvement of motor symptoms: SARA, two months of therapy; for SARA scale after therapy: two vials of thiamine 100 mg/ml twice a week, two months, scale 0-40
Protocol: The diagnosis was made by exclusion, by excluding the genetic forms of spino cerebellar ataxia and the tumour secondary forms.
The patients were evaluated with SARA (Scale for Assessment and Rating of Ataxia), scale validated for all disorders of cerebellar type. The score of this scale ranges from 0 (absence of symptoms) to 40 (maximum deficit).
The diagnoses were made by Italian primary neurological centres based upon the anamnestic, clinical, evolutionary, neuroradiological and neurophysiological and molecular chemistry data.

[4] = system: Essential Tremor (also called intention tremor); settings: for improvement of TETRAS ADL Subscale / improvement of TETRAS Performance subscale / TETRAS ADL Subscale score after treatment / TETRAS Performance subscale score after treatment: two 100-mg/ml vials intramuscularly per week, two months; for TETRAS ADL Subscale score after treatment: scale 0-48; for TETRAS Performance subscale score after treatment: scale 0-64
Protocol: Two patients were studied affected by such pathology, a person and a person. The intention tremor, differently from tremor in Parkinson disease appears and increases with muscular activity. The diagnosis was made by neurologists expert in the motion disorders based upon the clinical, neuroradiological and electrophysiological data.
Before starting the treatment, both patients were evaluated with a validated scale called TETRAS (TRG ESSENTIAL TREMOR RATING ASSESSMENT SCALE). They were re-evaluated with the same scale after two months of treatment with two 100-mg/ml vials of thiamine (vitamin B1) intramuscularly performed on Monday and on Thursday morning with the same scale.
In turn, this scale is constituted by two sub-scales. The first one, Activities of Daily Living Subscale (ADL Subscale) measures the impact the tremor has in the activities of daily life and it has a score ranging from 0 (no impact) to 48 (maximum impact).
The second one, Performance Subscale measures the width and the extension of tremor on the body and it has a score ranging from 0 (no tremor) to 64 (tremor with wide shocks and widespread).

[5] = system: Huntington's Chorea; settings: one patient, two vials intramuscularly 100 mg/ml per week, two months
Protocol: We evaluated and treated one single patient. The disease is genetic and it has dominant transmission. The diagnosis was made in primary neurological centres based upon anamnestic, clinical and laboratory data. […] The first symptoms appeared about six years ago.
The patient, 56 years […], was evaluated with Unified Huntington's Disease Rating Scale (UHDRS). The scale consists of 31 items and ranges from 0 scores (absence of choreic motions) to 124 scores (maximum intensity and extension on the body of the involuntary motions of choreic type).
The first evaluation, before treatment was performed on Jun. 7, 2016, the second one, after two months of treatment with two vials intramuscularly 100 mg/ml per week was performed on Sep. 9, 2016.

[6] = system: Migraine Headache; settings: for MIDAS after treatment: after 30 days, scale 0-25
Protocol: Migraine headache is the headache form characterized by a recurrent pain involving one only side of the head. The pulsating headache can last from four hours until three days and it is accompanied by nausea, vomiting, photophobia. The causes are poorly known. We studied two female patients starting from January 2017.
The patients were evaluated with Migraine Disability Assessment Test (MIDAS) evaluation scale before starting the treatment and every 30 days after starting the treatment, which started in January 2017. The score of this scale ranges from 0 (absence of symptoms) to 25 (maximum disability, maximum negative influence in the daily life activities).
The thiamine dose was 300 mg orally each morning.
The thiamine dose was 500 mg every morning orally.

[7] = system: Progressive Supranuclear Paralysis; settings: for Improvement of motor symptoms: UPDRS portion III, two months of therapy; for UPDRS portion III after therapy: five 100 mg/ml vials intramuscularly per week plus low doses of other group b vitamins and magnesium, two months, scale 0-56
Protocol: We treated […] affected by such pathology, two women and two men with five vials intramuscularly per week of vitamin B1. A vial included 100 mg/ml of thiamine. The injection was performed each morning for the first five days of the week. The dose was determined empirically based upon the disease progression rapidity. Furthermore, low doses of all other vitamins of the group b, including folic acid, 150 mg of magnesium citrate and 150 mg of magnesium malate, were associated to the treatment. The patients were evaluated with UPDRS (Unified Parkinson's Disease Rating Scale), scale validated for all Parkinson forms. Herein the scores of third portion (portion III) of this scale will be shown, illustrating the motor problems found by the examiner.
as §1

## Cc1ncc(C[n+]2csc(CCO)c2C)c(N)n1 [vitamin B1, thiamine]
[1]; patient N1 (person one)
  Improvement of motor symptoms: 14.3%
[1]; patient N1 (person one), before therapy 7
  SARA scale after therapy: 6 scores
[1]; patient N2 (person eight)
  Improvement of motor symptoms: 37.5%
[1]; patient N2 (person eight), before therapy 8
  SARA scale after therapy: 3 scores
[1]; patient N3
  Improvement of motor symptoms: 16.0%
[1]; patient N3, before therapy 25
  SARA scale after therapy: 21 scores
[2]; patient N1 (person five)
  Improvement of motor symptoms: 57.6%
[2]; patient N1 (person five), before therapy 26
  UPDRS portion III after therapy: 15 scores
[2]; patient N2 (person six)
  Improvement of motor symptoms: 15.3%
[2]; patient N2 (person six), before therapy 35
  UPDRS portion III after therapy: 31 scores
[3]; patient N1 (person nine)
  Improvement of motor symptoms: 33.4%
[3]; patient N1 (person nine), before therapy 9
  SARA scale after therapy: 6 scores
[3]; patient N2 (person four)
  Improvement of motor symptoms: 50.0%
[3]; patient N2 (person four), before therapy 6
  SARA scale after therapy: 3 scores
[4]; patient N1
  improvement of TETRAS ADL Subscale: 75%
  improvement of TETRAS Performance subscale: 74.4%
[4]; patient N1, before treatment 16
  TETRAS ADL Subscale score after treatment: 4 scores
[4]; patient N1, before treatment 19.5
  TETRAS Performance subscale score after treatment: 5 scores
[4]; patient N2
  improvement of TETRAS ADL Subscale: 65.3%
  improvement of TETRAS Performance subscale: 68.2%
[4]; patient N2, before treatment 22
  TETRAS Performance subscale score after treatment: 7 scores
[4]; patient N2, before treatment 23
  TETRAS ADL Subscale score after treatment: 8 scores
[4]; two Essential Tremor patients, long-term treatment never suspended
  alteration in the common laboratory examinations: nor any alteration in the common laboratory examinations
[4]; two Essential Tremor patients, long-term treatment never suspended (intramuscular vials or 4 grams each day orally)
  side effects: no any side effect
[4]; two Essential Tremor patients, 4 grams each day of vitamin B1 orally for some months instead of the vials
  result with the equivalent dose orally: keeping the same results of the vials
[5]
  improvement of UHDRS: 27.5%
[5]; before treatment 62, scale 0-124
  UHDRS after treatment: 45 scores
[6]; migraine patients on oral thiamine, maintained by continuing the same treatment
  days of treatment after which the regression of the episodes was already present: 7 days
[6]; patient N1, 300 mg orally each morning, before treatment 19
  MIDAS after treatment: 0 scores
[6]; patient N2 (person ten), 500 mg every morning orally, before treatment 20
  MIDAS after treatment: 0 scores
[7]; patient N1 (person two)
  Improvement of motor symptoms: 20.3%
[7]; patient N1 (person two), before therapy 31
  UPDRS portion III after therapy: 25 scores
[7]; patient N2 (person seven)
  Improvement of motor symptoms: 19.9%
[7]; patient N2 (person seven), before therapy 37
  UPDRS portion III after therapy: 30 scores
[7]; patient N3 (person twelve)
  Improvement of motor symptoms: 32.5%
[7]; patient N3 (person twelve), before therapy 23
  UPDRS portion III after therapy: 16 scores
[7]; patient N4
  Improvement of motor symptoms: 21.8%
[7]; patient N4, before therapy 28
  UPDRS portion III after therapy: 22 scores
[7]; patient N5
  Improvement of motor symptoms: 26.6%
[7]; patient N5, before therapy 28
  UPDRS portion III after therapy: 20 scores
